Legend:
[1] = molecular target: T1, cKIT (Homo sapiens, UniProt P10721); test: cKIT kinase in vitro biochemical assay (alphascreen); conditions: tested at about 1 μM; read-out: CKIT percent inhibition
T1 construct: The kinase domain of cKIT was assayed in 50 mM Hepes; purchased Upstate 14-559

[2] = system: MNFS60 (murine AML cells); test: Cell viability assay in MCSF dependent MNFS60 cells (Cell Titer Glo); assay type: cell-based; conditions: Mus musculus; tested at about 1 μM; MCSF 10 ng/mL, 72 hrs; read-out: CPEC50 MNFS60MCSF percent inhibition
Description: Cell viability was assessed by Cell Titer Glo, Promega. MNFS60 (murine AML cells) were seeded in TC treated 96-well plates at a density of 5,000 cells per well in RPMI-1640, 10% FBS, and 1% Penicillin Streptomycin prior to addition of compound. Test compounds were serially diluted (3 fold) in DMSO to 500× the final concentration. For each concentration of test compound, 2 μl (500×) aliquots of compound or 100% DMSO (control) were diluted in 500 μl of culture medium that contained 2× final concentration of growth factor MCSF for 2× concentration and then diluted 1× on the cells. Final concentration of MCSF is 10 ng/mL. Cells were incubated for 72 hrs at 37° C., 5% CO2. After the incubation 100 μl Cell Titer Glo is added to each well to determine viable cells. The assay was performed according to the manufacturer's instruction (Promega Corporation, Madison, Wis. USA). Each experimental condition was performed in triplicate. Raw data was imported in Abase and EC50s calculated with XL-fit data analysis software: Relative light units of wells that contained cells without MCSF in the media and as a consequence didn't grow were defined as 100% inhibited.

[3] = molecular target: T2, cytoplasmic domain of the human CSF-1R (Homo sapiens, UniProt P07333); test: In vitro kinase assay for CSF-1R (AlphaScreen); assay type: biochemical; conditions: tested at about 1 μM; read-out: CSF1RK 1 percent inhibition
T2 construct: Recombinant protein corresponding to the cytoplasmic domain of the human CSF-1R; purchased Invitrogen Corporation, Carlsbad, Calif; PV3249
T2 sequence (P07333 539-972 limits assumed): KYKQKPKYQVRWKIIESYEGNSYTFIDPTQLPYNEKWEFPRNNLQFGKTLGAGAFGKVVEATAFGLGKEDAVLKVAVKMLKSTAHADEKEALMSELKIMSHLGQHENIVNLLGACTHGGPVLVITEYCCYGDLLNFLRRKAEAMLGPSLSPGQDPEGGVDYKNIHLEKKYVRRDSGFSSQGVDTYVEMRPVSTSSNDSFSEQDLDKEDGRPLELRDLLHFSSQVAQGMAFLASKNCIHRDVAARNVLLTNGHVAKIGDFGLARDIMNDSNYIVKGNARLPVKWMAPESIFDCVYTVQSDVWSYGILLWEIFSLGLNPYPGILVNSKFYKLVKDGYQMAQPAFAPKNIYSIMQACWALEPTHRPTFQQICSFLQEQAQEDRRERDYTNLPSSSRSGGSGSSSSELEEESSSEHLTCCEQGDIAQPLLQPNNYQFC
Procedure, shortened: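 Recombinant CSF-1R cytoplasmic domain (4 nM) phosphorylated biotinylated peptide (0.05 μM) at 1.0 μM ATP in HEPES with Mg2+/Mn2+, 2 h at room temperature, compounds from 25 μM in 3-fold steps. AlphaScreen anti-phosphotyrosine PT66 detection; IC50 by non-linear regression.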

[4] = molecular target: T3, PDGFRb (Homo sapiens, UniProt P09619); test: PDGFRb kinase in vitro biochemical assay (alphascreen); conditions: tested at about 1 μM; read-out: PDGF RK BETA percent inhibition
T3 construct: The kinase domain of PDGFRβ was assayed in 50 mM Hepes; purchased Invitrogen P3082
T3 sequence (P09619 600-962 limits assumed): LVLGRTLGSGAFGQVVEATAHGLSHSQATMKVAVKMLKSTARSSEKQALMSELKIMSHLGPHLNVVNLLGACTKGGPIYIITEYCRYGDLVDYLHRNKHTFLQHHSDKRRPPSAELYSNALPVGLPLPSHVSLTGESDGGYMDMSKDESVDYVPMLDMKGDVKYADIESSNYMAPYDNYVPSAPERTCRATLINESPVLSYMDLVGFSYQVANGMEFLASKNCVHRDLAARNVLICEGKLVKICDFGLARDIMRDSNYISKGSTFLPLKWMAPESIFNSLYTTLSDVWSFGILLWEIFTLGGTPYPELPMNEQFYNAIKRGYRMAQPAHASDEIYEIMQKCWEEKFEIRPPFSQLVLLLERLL

T1 sequence (P10721 589-937 limits assumed): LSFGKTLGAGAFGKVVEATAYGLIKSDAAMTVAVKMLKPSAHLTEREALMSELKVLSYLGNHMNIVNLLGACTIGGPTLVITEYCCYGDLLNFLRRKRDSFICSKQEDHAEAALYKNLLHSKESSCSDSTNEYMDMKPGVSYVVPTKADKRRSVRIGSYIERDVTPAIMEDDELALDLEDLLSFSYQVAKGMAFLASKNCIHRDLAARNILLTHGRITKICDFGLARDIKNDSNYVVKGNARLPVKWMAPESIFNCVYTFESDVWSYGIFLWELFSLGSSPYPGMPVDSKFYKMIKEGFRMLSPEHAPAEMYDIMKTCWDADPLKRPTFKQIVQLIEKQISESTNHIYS

| SMILES | inhibition at 1 µM [1] [%] | inhibition at 1 µM [2] [%] | inhibition at 1 µM [3] [%] | inhibition at 1 µM [4] [%] |
| --- | --- | --- | --- | --- |
| COc1cncc(-c2cncc(Oc3ccc4nc(N[C@@H]5CCCC[C@H]5O)sc4c3)c2)c1 [Compound 74, (1R,2R)-2-(6-(5′-methoxy-3,3′-bipyridin-5-yloxy)benzo [d]thiazol-2-ylamino) cyclohexanol] | 59 | 100 | 100 | 1 |
| CNC(=O)c1cncc(Oc2ccc3nc(N[C@@H](C)C4CCCCC4)sc3c2)n1 [Compound 51, (S)-6-(2-(1-cyclohexylethylamino)benzo[d]thiazol-6-yloxy)-N-methylpyrazine-2-carboxamide] | 32 | 3 | 97 | 14 |
| Cn1cc(-c2cncc(Oc3ccc4nc(N[C@@H]5CCCC[C@H]5O)sc4c3)c2)cn1 [Compound 46, (1R,2R)-2-(6-(5-(1-methyl-1H-pyrazol-4-yl)pyridin-3-yloxy)benzo[d]thiazol-2-ylamino)cyclohexanol] | 60 | 100 | 100 | 12 |
| O[C@@H]1CCCC[C@H]1Nc1nc2ccc(Oc3cnccc3Cl)cc2s1 [Compound 7, (1R,2R)-2-(6-(4-chloropyridin-3-yloxy)benzo[d]thiazol-2-ylamino) cyclohexanol] | 25 | 42 | 100 | 11 |
| COc1cc2ncnc(Oc3ccc4nc(N[C@@H]5CCCC[C@H]5O)sc4c3)c2cc1OC [Compound 19, (1R,2R)-2-(6-(6,7-dimethoxyquinazolin-4-yloxy)benzo [d]thiazol-2-ylamino) cyclohexanol] | 34 | 100 | 100 | 30 |
| CN1CCN(c2ccc(-c3cc(Oc4ccc5nc(N[C@@H]6CCCC[C@H]6O)sc5c4)cnc3Cl)cn2)CC1 [Compound 103, (1R,2R)-2-(6-(2-chloro-6′-(4-methylpiperazin-1-yl)-3,3′-bipyridin-5-yloxy)benzo[d]thiazol-2-ylamino)cyclohexanol] | 14 | 35 | 100 | 9 |
| CCn1cc(-c2cncc(Oc3ccc4nc(N[C@@H]5CCCC[C@H]5O)sc4c3)c2)cn1 [Compound 80, (1R,2R)-2-(6-(5-(1-ethyl-1H-pyrazol-4-yl)pyridin-3-yloxy)benzo[d]thiazol-2-ylamino)cyclohexanol] | 66 | 100 | 100 | 0 |
| Clc1ccncc1Oc1ccc2nc(NCC3CCCCC3)sc2c1 [Compound 1, 6-(4-chloropyridin-3-yloxy)-N-(cyclohexylmethyl)benzo[d]thiazol-2-amine] | 66 | 22 | 100 | 34 |
| COc1cc2ncnc(Oc3ccc4nc(NCC5CCCCC5)sc4c3)c2cc1OC [Compound 17, N-(cyclohexylmethyl)-6-(6,7-dimethoxyquinazolin-4-yloxy)benzo[d] thiazol-2-amine] | 99 | 100 | 100 | 98 |
| Nc1cc(Oc2ccc3nc(NCC4CCCCC4)sc3c2)ncn1 [Compound 8, 6-(6-aminopyrimidin-4-yloxy)-N-(cyclohexylmethyl) benzo[d]thiazol-2-amine] | 75 | 30 | 100 | 46 |
| O[C@@H]1CCCC[C@H]1Nc1nc2ccc(Oc3cncc(-c4cnccn4)c3)cc2s1 [Compound 84, (1R,2R)-2-(6-(5-(pyrazin-2-yl)pyridin-3-yloxy)benzo[d]thiazol-2-ylamnino) cyclohexanol] | 99 | 100 | 100 | 100 |
| Nc1ccc(-c2nccc(Oc3ccc4nc(N[C@@H]5CCCC[C@H]5O)sc4c3)n2)cn1 [Compound 29, (1R,2R)-2-(6-(2-(6-aminopyridin-3-yl)pyrimidin-4-yloxy)benzo[d]thiazol-2-ylamino)cyclohexanol] | 13 | 76 | 100 | 11 |
| C[C@H](Nc1nc2ccc(Oc3ccnc(-c4ccc(N)nc4)n3)cc2s1)C1CCCCC1 [Compound 33, (S)-6-(2-(6-aminopyridin-3-yl)pyrimidin-4-yloxy)-N-(1-cyclohexylethyl) benzo[d]thiazol-2-amine] | 32 | 78 | 100 | 22 |
| c1nc(Oc2ccc3nc(NCC4CCCCC4)sc3c2)c2ccsc2n1 [Compound 37, N-(cyclohexylmethyl)-6-(thieno[2,3-d]pyrimidin-4-yloxy) benzo[d]thiazol-2-amine] | 75 | 0 | 100 | 39 |
| O=C(c1cncc(-c2cncc(Oc3ccc4nc(N[C@@H]5CCCC[C@H]5O)sc4c3)c2)c1)N1CCOCC1 [Compound 75, (5′-(2-((1R,2R)-2-hydroxycyclohexylamino)benzo[d]thiazol-6-yloxy)-3,3′-bipyridin-5-yl) (morpholino)methanone] | 28 | 33 | 100 | 5 |
| Cn1ncc2c(Oc3ccc4nc(NCC5CCCCC5)sc4c3)ncnc21 [Compound 44, N-(cyclohexylmethyl)-6-(1-methyl-1H-pyrazolo[3,4-d]pyrimidin-4-yloxy)benzo[d]thiazol-2-amine] | 14 | 0 | 99 | 19 |
| Cn1nccc1-c1nccc(Oc2ccc3nc(N[C@@H]4CCCC[C@H]4O)sc3c2)n1 [Compound 26, (1R,2R)-2-(6-(2-(1-methyl-1H-pyrazol-5-yl)pyrimidin-4-yloxy)benzo[d]thiazol-2-ylamino) cyclohexanol] | 24 | 19 | 100 | 20 |
| CNC(=O)c1cc(Oc2ccc3nc(NCC4CCCCC4)sc3c2)nc(OC)n1 [Compound 10, 6-(2-(Cyclohexylmethylamino)benzo[d]thiazol-6-yloxy)-2-methoxy-n-methylpyrimidine-4-carboxamide] | 16 | 27 | 96 | 5 |
| Nc1cc(Oc2ccc3nc(N[C@@H]4CCCC[C@H]4O)sc3c2)ncn1 [Compound 9, (1R,2R)-2-(6-(6-aminopyrimidin-4-yloxy)benzo[d]thiazol-2-ylamino) cyclohexanol] | 13 | 15 | 97 | 2 |
| C[C@H](Nc1nc2ccc(Oc3ccnc(-c4cnn(C)c4)n3)cc2s1)C1CCCCC1 [Compound 30, (S)-N-(1-cyclohexylethyl)-6-(2-(1-methyl-1H-pyrazol-4-yl)pyrimidin-4-yloxy)benzo[d] thiazol-2-amine] | 24 | 100 | 100 | 21 |
| O[C@@H]1CCCC[C@H]1Nc1nc2ccc(Oc3cncc(-c4cccnc4)n3)cc2s1 [Compound 96, (1R,2R)-2-(6-(6-(pyridin-3-yl)pyrazin-2-yloxy)benzo[d]thiazol-2-ylamino) cyclohexanol] | 23 | 32 | 100 | 9 |
| C[C@H](Nc1nc2ccc(Oc3cc(-n4cncn4)ncn3)cc2s1)C1CCCCC1 [Compound 41, (S)-6-(6-(1H-1,2,4-triazol-1-yl)pyrimidin-4-yloxy)-N-(1-cyclohexylethyl) benzo[d]thiazol-2-amine] | 28 | 0 | 99 | 0 |
